Columns and labels:
[1] = target: M. tuberculosis DXPS; set-up: method as in PMID 36320685; conditions: Morrison inhibition constant, slow-, tight-binding; read-out: Ki* MtDXPS; cited from earlier work
[2] = system: P. falciparum 3D7; test: Method III growth inhibition assay (HRP2-ELISA, 3 days), 3D7; assay type: cell-based, Plasmodium falciparum; conditions: Plasmodium falciparum, 3D7, 3D7, method III (HRP2 assay), drc package of R; read-out: IC50 P. falciparum 3D7 (method III)
[3] = system: blood-stage P. falciparum 3D7; conditions: Plasmodium falciparum
[4] = system: P. falciparum Dd2; test: Method III growth inhibition assay (HRP2-ELISA, 3 days), Dd2; assay type: cell-based, Plasmodium falciparum; conditions: Plasmodium falciparum, DD2, chloroquine-resistant Dd2, method III
[5] = system: P. falciparum 3D7 MOCK cell line; test: Growth inhibition of MOCK cell line (vector backbone only); assay type: cell-based; conditions: Plasmodium falciparum, 3D7, read-out: MOCK IC50, MOCK compared with 3D7-TPK+; single measurement; 95% CI in brackets
From the text: (§1) The open reading frame (ORF) encoding 1-deoxy-D-xylulose-5-phosphate synthase (PfDXPS; PF3D7_1337200) was amplified from genomic DNA isolated from unsynchronized P. falciparum 3D7 cultures using the Platinum PCR SuperMix High Fidelity (Invitrogen). Forward and reverse primers contained restriction sites for KpnI and AvrII in sense and antisense orientation, respectively (oligonucleotides pfDXPS-Kpn1-S: […]; pfDXPSmyc-Avr2-AS: […] ). PCR products and the transfection vector pARL1a-hDHFR PfARG-GFP were digested with KpnI and AvrII, purified (Gel extraction Kit and PCR purification kit; Qiagen), and cloned into the transfection vector yielding the construct for overexpression pARL-DXS-strep. XL 10-Gold E. coli ultracompetent cells (Agilent Technologies) were transformed with the generated construct to amplify the plasmid and colonies checked using restriction analysis and sequencing of the plasmid. Bacterial clones carrying the overexpression construct and the empty pARL1a vector (MOCK plasmid) were amplified in overnight cultures, isolated (Plasmid Maxi Kit; QIAGEN), and subsequently used to transfect P. falciparum 3D7 ring-stage parasites, as already described.[59] Briefly, 120 μg of plasmid DNA was centrifuged and air-dried, and the pellet was resuspended in TE buffer and cytomix reagent and mixed with the P. falciparum culture. Parasites were transfected using electroporation and selected with WR 99210. The generation and characterization of the PfTPK overexpression cell line has been reported before.[60]
(§2) P. falciparum cultures were treated as described in method I. For target specification toward PfTPK and PfDXPS, compounds were tested in comparison against overexpressing cell lines and the respective MOCK line containing only the transfected vector backbone. Parasite viability/proliferation was determined.

[6] = system: P. falciparum 3D7-TPK+; test: Growth inhibition of PfTPK overexpressing parasites (3D7-TPK+); assay type: cell-based; conditions: Plasmodium falciparum, 3D7, read-out: PfTPK IC50
Procedure: as §2, with “determined. Analysis of the IC50 values and interpretation of the curves was performed, as described in Section 4.1.2.44.” for “determined.”
eq 1: Fluorescence data normalization [drawing 2] where y is the fluorescence signal in each well, yminimum is the background fluorescence, and ymaximum is the highest measured fluorescence signal in the untreated wells. Drug concentrations (in μM) were transformed to the log(10)of the values. Means of each independent experiment were plotted as individual values, and the SD of the mean from the means shown as error bars. […] In case of transgenic cell lines, the built-in comparison Akaike’s information criteria (AICc) method was applied to the Log IC50s of the different cell lines. The test calculates a percentage probability of the simpler model “Log IC50 is the same for datasets” being correct. The test for homoscedasticity was performed to confirm if no weighting of values was appropriate.

[7] = system: P. falciparum 3D7-DXPS+; test: Growth inhibition of PfDXPS overexpressing parasites (3D7-DXPS+); assay type: cell-based; conditions: Plasmodium falciparum, 3D7, read-out: PfDXPS IC50
From the text: as §1, §2

[8] = system: Mycobacterium tuberculosis H37Rv strain; set-up: method as in PMID 36320685; conditions: cited from earlier work
[9] = system: Hep G2 cells; test: Hep G2 viability assay (counter screen); assay type: cell-based, human; conditions: cytotoxicity, 48 h
Procedure: HepG2 cells (2 × 10^5 cells per well) were seeded in 24-well, flat-bottomed plates. Culturing of cells, incubations, and OD measurements were performed as described previously with small modifications.[58] 24 h after seeding the cells, the incubation was started by the addition of compounds in a final DMSO concentration of 1%. The metabolic activity of the living cell mass was determined after 48 h. At least three independent measurements were performed for each compound. The IC50 values were determined during logarithmic growth using GraphPad Prism software. All experiments were performed at least in triplicate, and data reported represent the mean ± SD.

[10] = system: P. falciparum NF54; test: Method II growth-inhibition assay (PicoGreen, 3 days), NF54; assay type: cell-based; conditions: Plasmodium falciparum; chloroquine-sensitive NF54, method II
From the text: (§3) Fidock (Columbia University).

[11] = system: MEP pathway metabolites in E. coli ΔTolC; test: LC-MS/MS profiling of MEP pathway metabolites in E. coli; conditions: 48 μM (10× the IC50), 2 h, pyruvate concentration drops
Procedure: Overnight cultures of E. coli ΔTolC were diluted 1:1000 in LB media and grown at 37 °C until reaching the mid logarithmic phase (OD600 = 0.67–7.2). […] For normalization, the OD600 was determined after 2 h of treatment with the inhibitor. Cells were pelleted by centrifugation for 5 min at 3000g at 4 °C. The supernatants were removed, and cells were washed twice with 1× PBS. The supernatants were removed, and the pellets were stored at −80 °C until analysis. […]
For pyruvate analysis from the E. coli samples, the LC separation was done on the Shimadzu Nexera II using the Poroshell 120 (Agilent, 2.7 μm, 150 × 2.1 mm) flowing at 0.5 mL/min. […] Metabolites were detected using MRM transitions that were previously optimized using standards. […] For quantification, an external standard curve was prepared using a series of standard samples containing different concentrations of metabolites and fixed concentration of the internal standard. […]

[12] = system: P. falciparum 3D7; test: Method II growth-inhibition assay (PicoGreen, 3 days), 3D7; assay type: cell-based; conditions: Plasmodium falciparum, 3D7, method II
From the text: as §3

[13] = system: P. falciparum NF54; test: IDP rescue assay, P. falciparum NF54; assay type: cell-based; conditions: Plasmodium falciparum
Procedure: Fidock (Columbia University). […] P. falciparum cultures were treated as described in method II. For IDP (Isoprenoids.com) rescue experiments, 125 μM IDP was added to the appropriate wells for the duration of the experiment. The well-described DXR inhibitor FSM was used as a positive control. IC50 values were calculated by nonlinear regression analysis using GraphPad Prism software. All experiments were performed at least in triplicate, and data reported represent the mean ± SD.

Cc1nc(N)sc1-c1csc(Nc2ccc(C(F)(F)F)cc2)n1 [compound 1]
Ki [1]: 210 ± 30 nM
IC50 [2]: 600 ± 200 nM
IC50 [3]: 600 to 1700 nM
IC50 [4]: 800 ± 400 nM
IC50 [5]: 1180 nM
IC50 [6]: 1760 nM
IC50 [7]: 2080 nM
MIC [8]: 5 to 10 µM
IC50 ([9]; Homo sapiens, HepG2, 48 h): 54000 ± 2400 nM
IC50 [9]: > 50000 nM
IC50 [10]: 800 ± 100 nM
MEP pathway metabolite concentrations upon inhibitor treatment [11]: all downstream metabolites of DXPS are increased
IC50 ([12]; 95% CI in brackets, read-out: IC50 B): 1600 nM
IC50 ([12]; read-out: IC50 3D7-II): 1700 ± 600 nM
IC50 ([13]; NF54, 72 h, + IDP (125 μM)): 500 nM
IC50 ([13]; NF54, without IDP): 800 ± 100 nM

Reference: publication PMC10928712, “High Target Homology Does Not Guarantee Inhibition: Aminothiazoles Emerge as Inhibitors of Plasmodium falciparum” (ACS Infectious Diseases, 2024)
